Consider 1 molecule from article PMC12140300, “Development of Carbon‐11 Labeled Pyrimidine Derivatives as Novel Positron Emission Tomography (PET) Agents Enabling Brain Sigma‐1 Receptor Imaging” (Advanced Science, 2025).

The target of data set [1] is T1, σ1R (Mus musculus, UniProt O55242).
T1 construct: The PET/CT studies in mice followed previously reported procedures; from tissue; host or cells: mouse brain in vivo (C57BL/6 wild type; 5xFAD transgenic)
Kind of data set: Mice PET/CT imaging, baseline and self-blocking. Type of data set: in vivo, C57BL/6 mice. How it is done:
PET/CT imaging studies of [^11C]CNY‐01 and [^11C]CNY‐02 were performed in male C57BL/6 mice. […] The whole‐brain time‐activity curve (TAC) of each tracer was generated. […] To investigate the binding specificity of [^11C]CNY‐01 and [^11C]CNY‐02, blocking studies were carried out by pre‐administrating mice with corresponding unlabeled ligands. […] This is due to the receptors in peripheral tissues being occupied by CNY‐01, leading to more radiotracer entering the brain and quickly washing out. […] Of note, the TACs show an increase in brain tracer uptake during the blocking studies, which could be attributed to peripheral blocking effects. To address this, we normalized the brain uptake data to the maximum radioactivity observed in the blood (input function). This normalization allowed us to account for peripheral changes in tracer availability.
Figure 3 Mice PET/CT study with [^11C]CNY‐01 and [^11C]CNY‐02. A) Representative baseline and blocking (pre‐treated with 1.0 mg kg^−1 CNY‐01) PET/CT images of [^11C]CNY‐01 focused on the brain (summed 30‒60 min, n = 4). B) Whole brain time‐activity curves of [^11C]CNY‐01 for baseline and blocking mice. C) The normalized baseline and blocking TACs of [^11C]CNY‐01 (normalized the brain uptake curves with the maximum radioactivity in the blood at each time point). D) Representative baseline and blocking (pre‐treated with 1.0 mg kg^−1 CNY‐02) PET/CT images of [^11C]CNY‐02 focused on the brain (summed 30‒60 min, n = 4). E) Whole brain time‐activity curves of [^11C]CNY‐02 for baseline and blocking mice. F) The normalized baseline and blocking TACs of [^11C]CNY‐02 (normalized the brain uptake curves with the maximum radioactivity in the blood at each time point). Data were presented as mean ± standard error of the mean (SEM). Quantification of results was performed using Student's t‐test (***p < 0.0001).
The PET/CT studies in mice followed previously reported procedures with minor modifications.^[ [53], [54] ^] Mice (wild‐type: C57BL/6, male, 6‐month‐old; AD transgenic: 5xFAD, male, 6‐month‐old, n = 4 for each group) were anesthetized with inhalational isoflurane (Patterson Vet Supply, Inc., Greeley, CO, USA) at 2.0% in a carrier of 2 L min^−1 medical oxygen, and maintained at 1.0% isoflurane during the imaging scan. Mice were injected with radiotracer (200 µL) via lateral tail vein catheterization at the start of the dynamic PET scan (Gamma Medica, Northridge, CA, USA). For blocking studies, the blocking agent was administered via the tail vein 5 min before radiotracer injection. Dynamic PET acquisition lasted 60 min and was followed by computed tomography (CT) for anatomic co‐registration. […] Reconstructed images were exported from the scanner in DICOM format and were analyzed using PMOD (PMOD 4.01).

Data set [2] in a line: NHP plasma and metabolite analysis. As to conditions: 30-minute mark. Type of data set: in vivo, rhesus macaque. The source says: Understanding the metabolism of [^11C]CNY‐01 is crucial for modeling its distribution kinetics and evaluating safety profiles. Figure 4B illustrates the presence of radiometabolites in arterial plasma following a bolus injection of [^11C]CNY‐01. […] This characteristic makes it well‐suited for kinetic modeling and reducing background signal interference.
During the PET/MR scanning, macaque arterial blood samples were collected synchronously. Metabolite extraction and analysis were based on published methods.^[ [54], [60] ^] Briefly, the blood samples were centrifuged to isolate plasma. Next, protein precipitation was achieved by mixing the plasma with acetonitrile (v/v = 1). The mixture was then centrifuged again to obtain protein‐free plasma. A 1 mL aliquot of the protein‐free supernatant was diluted in 4 mL of deionized water, and the radiometabolites were analyzed by HPLC. HPLC condition: Mobile Phase A: water + 0.1% formic acid; Mobile Phase B: acetonitrile + 0.1% formic acid; separation method = 95/5 – 50/50 A/B from 3–8 min linear gradient; 50/50–5/95 A/B from 8–10 min linear gradient; 5/95 A/B from 10–11 min isocratic; flow rate 2 mL min^−1.

The target of data set [3] is T1, σ1R. Kind of data set: PET/CT imaging in 5xFAD transgenic and WT mice. Type of data set: in vivo, 5xFAD mice. As to conditions: 6-month-old male mice, PET/CT 30–60 min. The source says: Numerous studies have shown that σ 1R is abnormally expressed in the AD brain, and targeting σ 1R becomes a promising strategy for diagnosis and treatment of AD.^[ [11], [49] ^] To evaluate the diagnostic potential of [^11C]CNY‐01 for AD and its potential application in studying the relationship between the σ 1R and AD pathology, we conducted PET imaging studies on 5xFAD transgenic mice model and the corresponding wild‐type (WT) mice. […] Of particular note, brain regions with relatively high σ 1R expression observed higher reduction of radioactivity uptake, such as the striatum, hippocampus, and cerebellum, indicating a decrease in σ 1R expression in the brain under AD pathological conditions, consistent with previous reports (Figure 5B).^[ [11], [49], [50] ^]
Figure 5 PET/CT imaging studies of [^11C]CNY‐01 in WT and 5xFAD mouse model. A) Representative PET/CT images (30–60 min) focused on the WT and 5xFAD mice brain. (n = 4). […] Data were presented as mean ± standard error of the mean (SEM). Quantification of results was performed using Student's t‐test (****p < 0.0001, ***p < 0.001, **p < 0.01, […]).
The PET/CT studies in mice followed previously reported procedures with minor modifications.^[ [53], [54] ^] […] Reconstructed images were exported from the scanner in DICOM format and were analyzed using PMOD (PMOD 4.01).

T1 sequence (O55242 whole entry): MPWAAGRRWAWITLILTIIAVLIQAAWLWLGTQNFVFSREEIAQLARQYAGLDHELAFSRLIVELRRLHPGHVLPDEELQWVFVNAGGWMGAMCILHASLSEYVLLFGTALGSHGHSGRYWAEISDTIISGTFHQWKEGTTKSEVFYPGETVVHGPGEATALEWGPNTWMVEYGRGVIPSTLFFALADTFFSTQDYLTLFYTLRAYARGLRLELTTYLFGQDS

For `Cc1nc(-c2ccc(O[11CH3])cc2)nc(OCCCN2CCCCC2)c1Cl` [[^11C]CNY-01], the “maximum standard uptake value (SUV) in the brain” value on σ1R [1] (male C57BL/6 mice, baseline PET/CT) was determined as 1.3. For the same molecule, the “blocking effect, brain uptake normalized to maximum radioactivity in the blood” value on σ1R [1] (pre-treated with 1.0 mg kg^−1 of the corresponding unlabeled ligand) is “significant blocking effect”. The “parent compound present in plasma” value in data set [2] was “over 30%”. The “brain uptake in 5xFAD mice compared to WT mice” value on σ1R [3] is on record as “significantly lower uptake”.
